Measured values from PubChem BioAssay AID248 (DTP/NCI, 2004).
Values joined by “and” are separate entries in the source; they are usually repeats but may differ in a detail not shown here. Equal values may be shown once. Toxic doses and inconclusive results are not listed.

Tested on: L1210 leukemia ip in BDF1 mice, survival T/C
Assay: NCI In Vivo Anticancer Drug Screen. Data for tumor model L1210 Leukemia (intraperitoneal) in B6D2F1 (BDF1) mice
Settings: endpoint: mean survival time, higher = longer survival
In short: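 Tumor was transplanted into mice, which were then dosed with test compound or vehicle alone. Survival was recorded for each group, and the treated figure was expressed relative to the control figure.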

[1] = dose: 100.0 mg/kg/injection, schedule: Q04DX002 (ip), vehicle: saline
[2] = dose: 200.0 mg/kg/injection, schedule: Q04DX002 (ip), vehicle: saline
[3] = dose: 400.0 mg/kg/injection, schedule: Q04DX002 (ip), vehicle: saline
[4] = dose: 100.0 mg/kg/injection, schedule: Q01DX001 (ip), vehicle: carboxymethylcellulose (CMC)
[5] = dose: 200.0 mg/kg/injection, schedule: Q01DX001 (ip), vehicle: carboxymethylcellulose (CMC)
[6] = dose: 400.0 mg/kg/injection, schedule: Q01DX001 (ip), vehicle: carboxymethylcellulose (CMC)
[7] = dose: 100.0 mg/kg/injection, schedule: Q01DX001 (ip), vehicle: saline
[8] = dose: 200.0 mg/kg/injection, schedule: Q01DX001 (ip), vehicle: saline
[9] = dose: 400.0 mg/kg/injection, schedule: Q01DX001 (ip), vehicle: saline
[10] = dose: 100.0 mg/kg/injection, schedule: Q04DX003 (ip), vehicle: Klucel (hydroxypropylcellulose) (HPC)
[11] = dose: 200.0 mg/kg/injection, schedule: Q04DX003 (ip), vehicle: Klucel (hydroxypropylcellulose) (HPC)
[12] = dose: 100.0 mg/kg/injection, schedule: Q04DX003 (ip), vehicle: saline with Tween-80
[13] = dose: 200.0 mg/kg/injection, schedule: Q04DX003 (ip), vehicle: saline with Tween-80
[14] = dose: 400.0 mg/kg/injection, schedule: Q04DX003 (ip), vehicle: saline with Tween-80
[15] = dose: 50.0 mg/kg/injection, schedule: Q01DX009 (ip), vehicle: saline with Tween-80
[16] = dose: 100.0 mg/kg/injection, schedule: Q01DX009 (ip), vehicle: saline with Tween-80

Cc1ncn(C)n1
T/C [1]: 94 % of control
T/C [2]: 112 % of control
T/C [3]: 98 % of control

COC(=O)C(CC(C)C)NC(=O)C(Cc1ccc(Oc2ccc([N+](=O)[O-])cc2[N+](=O)[O-])cc1)NC=O (stereo not drawn)
T/C (dose: 25.0 mg/kg/injection, schedule: Q01DX009 (ip), vehicle: water): 104 % of control
T/C (dose: 50.0 mg/kg/injection, schedule: Q01DX009 (ip), vehicle: water): 98 % of control
T/C (dose: 100.0 mg/kg/injection, schedule: Q01DX009 (ip), vehicle: water): 102 % of control
T/C (dose: 200.0 mg/kg/injection, schedule: Q01DX009 (ip), vehicle: water): 91 % of control
T/C (dose: 400.0 mg/kg/injection, schedule: Q01DX009 (ip), vehicle: water): 97 % of control

CCOC(=O)C(C[N+](C)(CC)CC)c1ccccc1 (stereo not drawn)
T/C (dose: 88.8 mg/kg/injection, schedule: Q01DX001 (ip), vehicle: carboxymethylcellulose (CMC)): 97 % of control and 102 % of control
T/C [4]: 113 % of control
T/C (dose: 133.0 mg/kg/injection, schedule: Q01DX001 (ip), vehicle: carboxymethylcellulose (CMC)): 105 % of control and 114 % of control
T/C [5]: 107 % of control and 118 % of control
T/C (dose: 300.0 mg/kg/injection, schedule: Q01DX001 (ip), vehicle: carboxymethylcellulose (CMC)): 95 % of control and 104 % of control
T/C [6]: 98 % of control

S=c1cc(S)c(=S)[nH][nH]1
T/C (dose: 5.0 mg/kg/injection, schedule: Q01DX001 (ip), vehicle: other): 98 % of control
T/C (dose: 10.0 mg/kg/injection, schedule: Q01DX001 (ip), vehicle: other): 96 % of control
T/C (dose: 20.0 mg/kg/injection, schedule: Q01DX001 (ip), vehicle: other): 96 % of control

CC(=O)N(c1ccccc1)c1cc(Cl)cc[n+]1[O-]
T/C [7]: 96 % of control
T/C [8]: 96 % of control
T/C [9]: 97 % of control

CCCCOCCOCCOc1ccc(Cl)cc1
T/C [1]: 100 % of control
T/C [2]: 113 % of control
T/C [3]: 100 % of control

Nc1nc(N)c(N=Nc2ccc(S(=O)(=O)c3ccc(N=Nc4c(N)nc(N)[nH]c4=O)cc3)cc2)c(=O)[nH]1
T/C [7]: 91 % of control
T/C [8]: 96 % of control
T/C [9]: 91 % of control

COC1=C(C)C(=O)c2c(c(COC(N)=O)c3n2CC2C3N2C)C1=O (stereo not drawn)
T/C (dose: 1.0 mg/kg/injection, schedule: Q01DX009 (ip), vehicle: carboxymethylcellulose (CMC)): 123 % of control
T/C (dose: 1.8 mg/kg/injection, schedule: Q01DX009 (ip), vehicle: carboxymethylcellulose (CMC)): 105 % of control
T/C (dose: 1.9 mg/kg/injection, schedule: Q01DX001 (ip), vehicle: other): 116 % of control and 122 % of control
T/C (dose: 2.9 mg/kg/injection, schedule: Q01DX001 (ip), vehicle: other): 119 % of control
T/C (dose: 4.5 mg/kg/injection, schedule: Q01DX001 (ip), vehicle: other): 122 % of control
T/C (dose: 6.7 mg/kg/injection, schedule: Q01DX001 (ip), vehicle: other): 123 % of control

CCOC(=O)Cc1cc(=O)[nH][nH]c1=O
T/C (dose: 150.0 mg/kg/injection, schedule: Q04DX002 (ip), vehicle: Klucel (hydroxypropylcellulose) (HPC)): 95 % of control
T/C (dose: 300.0 mg/kg/injection, schedule: Q04DX002 (ip), vehicle: Klucel (hydroxypropylcellulose) (HPC)): 95 % of control

O=C(O)/C(=C\CCCC/C=C(\CCO)C(=O)O)CCO
T/C (dose: 100.0 mg/kg/injection, schedule: Q01DX009 (ip), vehicle: Klucel (hydroxypropylcellulose) (HPC)): 102 % of control
T/C [10]: 94 % of control
T/C (dose: 200.0 mg/kg/injection, schedule: Q01DX009 (ip), vehicle: Klucel (hydroxypropylcellulose) (HPC)): 99 % of control
T/C [11]: 102 % of control
T/C (dose: 400.0 mg/kg/injection, schedule: Q01DX009 (ip), vehicle: Klucel (hydroxypropylcellulose) (HPC)): 102 % of control
T/C (dose: 400.0 mg/kg/injection, schedule: Q04DX003 (ip), vehicle: Klucel (hydroxypropylcellulose) (HPC)): 96 % of control

COC/C(C)=C/Cl
T/C (dose: 100.0 mg/kg/injection, schedule: Q01DX001 (ip), vehicle: acetone): 102 % of control
T/C (dose: 200.0 mg/kg/injection, schedule: Q01DX001 (ip), vehicle: acetone): 100 % of control
T/C (dose: 400.0 mg/kg/injection, schedule: Q01DX001 (ip), vehicle: acetone): 96 % of control

Nc1nc(N)nc(NC(=O)CNCc2ccccc2)n1
T/C [12]: 101 % of control and 105 % of control
T/C [13]: 97 % of control and 107 % of control
T/C [14]: 97 % of control and 102 % of control

CN1c2ccc(Br)c[c]2[Sn]([c]2ccccc2)([c]2ccccc2)[c]2cc(Br)ccc21
T/C (dose: 100.0 mg/kg/injection, schedule: Q01DX001 (ip), vehicle: other): 91 % of control
T/C (dose: 200.0 mg/kg/injection, schedule: Q01DX001 (ip), vehicle: other): 96 % of control
T/C (dose: 400.0 mg/kg/injection, schedule: Q01DX001 (ip), vehicle: other): 96 % of control

CC(C)CNCc1ccc([N+](=O)[O-])cc1
T/C (dose: 75.0 mg/kg/injection, schedule: Q01DX001 (ip), vehicle: carboxymethylcellulose (CMC)): 97 % of control
T/C (dose: 150.0 mg/kg/injection, schedule: Q01DX001 (ip), vehicle: carboxymethylcellulose (CMC)): 95 % of control

CSc1nc2c(=O)[nH][nH]c(=O)c2n1Cc1ccccc1
T/C [4]: 92 % of control
T/C [5]: 90 % of control
T/C [6]: 95 % of control

CC(C)(C)c1ccc(C(C)(C)C)c(O)c1
T/C (dose: 25.0 mg/kg/injection, schedule: Q04DX002 (ip), vehicle: Klucel (hydroxypropylcellulose) (HPC)): 92 % of control and 90 % of control
T/C (dose: 50.0 mg/kg/injection, schedule: Q04DX002 (ip), vehicle: Klucel (hydroxypropylcellulose) (HPC)): 95 % of control and 96 % of control
T/C (dose: 100.0 mg/kg/injection, schedule: Q04DX002 (ip), vehicle: Klucel (hydroxypropylcellulose) (HPC)): 92 % of control and 104 % of control
T/C (dose: 200.0 mg/kg/injection, schedule: Q04DX002 (ip), vehicle: Klucel (hydroxypropylcellulose) (HPC)): 92 % of control and 86 % of control

CC/C=C/N1CCCCC1
T/C (dose: 25.0 mg/kg/injection, schedule: Q01DX009 (ip), vehicle: saline with Tween-80): 97 % of control
T/C [15]: 94 % of control
T/C [16]: 113 % of control and 91 % of control

CS(=O)(=O)Nc1ccc(Nc2c3ccccc3nc3cc(Cl)ccc23)cc1
T/C (dose: 10.0 mg/kg/injection, schedule: Q01DX009 (sc), vehicle: saline): 118 % of control
T/C (dose: 20.0 mg/kg/injection, schedule: Q01DX009 (sc), vehicle: saline): 113 % of control
T/C (dose: 133.0 mg/kg/injection, schedule: Q04DX003 (ip), vehicle: saline with Tween-80): 176 % of control
T/C [13]: 103 % of control
T/C (dose: 300.0 mg/kg/injection, schedule: Q04DX003 (ip), vehicle: saline with Tween-80): 113 % of control

SCCSCCNc1ccccc1
T/C [15]: 101 % of control
T/C [16]: 101 % of control
T/C (dose: 200.0 mg/kg/injection, schedule: Q01DX009 (ip), vehicle: saline with Tween-80): 101 % of control

c1ccc(C2c3cccc4c3C3c5c2cccc5C(c2ccccc2)c2cccc(c23)C4c2ccccc2)cc1 (stereo not drawn)
T/C [12]: 108 % of control
T/C [13]: 95 % of control
T/C [14]: 100 % of control

O=C(/C(=N/N=C\c1ccc([N+](=O)[O-])cc1)c1ccccc1)c1ccccc1
T/C [12]: 96 % of control
T/C [13]: 96 % of control
T/C [14]: 94 % of control

CCN(CC)C(=O)c1cccnc1
T/C (dose: 12.5 mg/kg/injection, schedule: Q01DX009 (ip), vehicle: saline): 102 % of control
T/C (dose: 25.0 mg/kg/injection, schedule: Q01DX009 (ip), vehicle: saline): 89 % of control
T/C (dose: 50.0 mg/kg/injection, schedule: Q01DX009 (ip), vehicle: saline): 93 % of control
T/C (dose: 75.0 mg/kg/injection, schedule: Q01DX001 (ip), vehicle: saline): 102 % of control
T/C (dose: 100.0 mg/kg/injection, schedule: Q01DX009 (ip), vehicle: saline): 105 % of control
T/C (dose: 150.0 mg/kg/injection, schedule: Q01DX001 (ip), vehicle: saline): 94 % of control
T/C (dose: 200.0 mg/kg/injection, schedule: Q01DX009 (ip), vehicle: saline): 93 % of control
T/C (dose: 300.0 mg/kg/injection, schedule: Q01DX001 (ip), vehicle: saline): 90 % of control

COc1cc(C)c(Cc2cnc(N)nc2N)cc1OC
T/C [10]: 97 % of control
T/C [11]: 89 % of control

Nc1nc(N2CCCCC2)c2nc(Cl)n(C3OC(CO)C(O)C3O)c2n1 (stereo not drawn)
T/C [7]: 96 % of control
T/C [8]: 94 % of control
T/C [9]: 97 % of control
